Columns and labels:
[1] = biological target: T1, α/β-hydrolase domain 3 (ABHD3) (Homo sapiens, UniProt Q8WU67); test: competitive gel-based ABPP (FP-rhodamine) in HEK […] lysate overexpressing human ABHD3; also in situ (IC50 […]) and ABPP-SILAC in SW620 cells; format: biochemical
T1 sequence (Q8WU67 1-409): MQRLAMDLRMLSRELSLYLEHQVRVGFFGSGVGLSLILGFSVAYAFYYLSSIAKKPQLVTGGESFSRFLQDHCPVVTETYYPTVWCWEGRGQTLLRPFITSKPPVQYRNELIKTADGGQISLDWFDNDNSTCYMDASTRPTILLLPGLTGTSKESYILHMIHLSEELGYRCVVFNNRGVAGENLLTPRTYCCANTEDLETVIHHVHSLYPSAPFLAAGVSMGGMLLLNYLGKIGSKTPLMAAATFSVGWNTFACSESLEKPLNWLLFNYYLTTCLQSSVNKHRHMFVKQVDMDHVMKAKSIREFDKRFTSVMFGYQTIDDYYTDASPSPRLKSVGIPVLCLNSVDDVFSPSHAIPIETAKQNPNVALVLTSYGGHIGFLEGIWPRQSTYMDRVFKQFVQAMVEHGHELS

[2] = biological target: T1, α/β-hydrolase domain 3 (ABHD3); test: competitive gel-based ABPP (mouse brain proteome; follow-up in HEK […] lysates expressing ABHD3); format: cell-based

Compound	IC50 [1] [nM]	competitive gel-based ABPP (mouse brain proteome); follow-up in HEK 293T lysates [2]
C[N+]12CC(=O)O[B-]1(CC(C#N)N(Cc1ccc(F)cc1Cl)C(=O)c1ccccc1)OC(=O)C2 (racemic) [4j]	140	
Cc1ccc(CN(C(=O)c2ccccc2)C(C#N)C[B-]23OC(=O)C[N+]2(C)CC(=O)O3)cc1 (stereo not drawn) [4g]		Compound 4j appears equipotent with compounds 4h and 4g against ABHD3, but is more selective against ABHD10.
C[N+]12CC(=O)O[B-]1(CC(C#N)N(Cc1ccccc1Cl)C(=O)c1ccccc1)OC(=O)C2 (stereo not drawn) [4h]		Compound 4j appears equipotent with compounds 4h and 4g against ABHD3, but is more selective against ABHD10.

Source: paper PMC5701053, “Multicomponent mapping of boron chemotypes furnishes selective enzyme inhibitors” (Nature Communications, 2017)
